Data: patent US20060211651A1, “Persulfated oligosaccharide acting on selectins and chemokine” (Taisho Pharmaceutical Co., Ltd., priority 2002, published 2006)
Each block holds one molecule with its values, some of them ahead of it.

Key:
[1] = molecular target: T1, γ-interferon inducible protein-10 (Homo sapiens, UniProt P02778); assay: Binding of biotinylated oligosaccharide fraction (streptavidin-alkaline phosphatase) to IP-10; conditions: FIG. 7 panel D; absorbance at 620 nm
Procedure: (§1) First, each of oligosaccharides was biotinylated with biotin-LC-hydrazide at a reducing end. To each of the fraction a, the fraction c, the fraction e-1 and the fraction e-2 obtained in the above item (2), 125 mM EZ-link™ biotin-LC-hydrazide and 1M NaCNBH3 in dimethyl sulfoxide/acetic acid (7:3) were added. The resulting reaction mixture was incubated at 65° C. for 3 hours, and then incubated at 37° C. for 12.5 to 18.5 hours to biotinylate an oligosaccharide. Each of the resulting reaction products was subjected to Sephadex G-25 column as described above, to remove unreacted biotin-LC-hydrazide, thereby collecting the fraction containing a biotinylated oligosaccharide. Then, the resulting fraction was evaporated to dryness.
(§2) Then, a part of a fraction containing 16 pmol of each biotinylated oligosaccharide was dissolved in 0.5 ml of the buffer A, and thereafter, each of the resulting solutions and 1 μl (2 pmol) of streptavidin-conjugated alkaline phosphatase [manufactured by Promega] were incubated at 4° C. overnight.
(§3) Each of the resulting products was 3-fold diluted with the buffer A respectively. […] Binding was determined by measuring absorbance at 620 nm using Blue Phos™ substrate. […]

[2] = molecular target: T2, stromal cell-derived factor-1β (Homo sapiens, UniProt P48061); assay: Binding of biotinylated oligosaccharide fraction (streptavidin-alkaline phosphatase) to SDF-1β; conditions: FIG. 7 panel D; absorbance at 620 nm
T2 construct: purchased Pepro Tech
Procedure: as §1, §2, §3

P-selectin-Ig [3] = assay: Binding of biotinylated oligosaccharide fraction (streptavidin-alkaline phosphatase) to P-selectin-Ig; conditions: FIG. 7 panel D; absorbance at 620 nm
Procedure: as §1, §2, §3

L-selectin-Ig [4] = molecular target: T3, L-selectin-Ig (Homo sapiens, UniProt P14151); assay: Binding of biotinylated oligosaccharide fraction (streptavidin-alkaline phosphatase) to L-selectin-Ig; conditions: FIG. 7 panel D; absorbance at 620 nm
T3 construct: purchased R & D Systems Inc
T3 sequence (P14151 with tags, fused parts or gaps limits assumed): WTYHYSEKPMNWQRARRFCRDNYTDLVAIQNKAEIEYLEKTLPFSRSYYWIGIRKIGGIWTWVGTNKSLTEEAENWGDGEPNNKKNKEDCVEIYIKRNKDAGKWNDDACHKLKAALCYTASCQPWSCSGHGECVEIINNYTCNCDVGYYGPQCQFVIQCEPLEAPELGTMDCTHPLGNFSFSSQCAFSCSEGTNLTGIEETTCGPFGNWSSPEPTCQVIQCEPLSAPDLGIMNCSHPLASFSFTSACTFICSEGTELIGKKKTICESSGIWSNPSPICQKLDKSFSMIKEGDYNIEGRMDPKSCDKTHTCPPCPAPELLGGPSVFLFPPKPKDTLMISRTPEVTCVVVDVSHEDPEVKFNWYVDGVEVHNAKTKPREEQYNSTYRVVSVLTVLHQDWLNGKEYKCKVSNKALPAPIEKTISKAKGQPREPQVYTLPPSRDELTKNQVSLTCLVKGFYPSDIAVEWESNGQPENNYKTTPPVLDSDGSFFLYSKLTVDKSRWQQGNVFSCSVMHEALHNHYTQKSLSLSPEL
Procedure: as §1, §2, §3

[5] = system: secondary lymphoid tissue chemokine; assay: Binding of biotinylated oligosaccharide fraction (streptavidin-alkaline phosphatase) to SLC; conditions: FIG. 7 panel D; absorbance at 620 nm
Procedure: as §1, §2, §3

platelet factor 4 [6] = molecular target: T4, platelet factor 4 (Homo sapiens, UniProt P02776); assay: Binding of biotinylated oligosaccharide fraction (streptavidin-alkaline phosphatase) to PF4; conditions: FIG. 7 panel D; absorbance at 620 nm
T4 sequence (P02776 32-101): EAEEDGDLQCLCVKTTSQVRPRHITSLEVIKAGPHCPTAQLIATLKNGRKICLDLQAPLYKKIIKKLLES
Procedure: as §1, §2, §3

[7] = molecular target: T5, stromal cell-derived factor-1α (Homo sapiens, UniProt P48061); assay: Sandwich-type ELISA, versican binding to SDF-1α; conditions: FIG. 4 panel B
T5 construct: purchased Pepro Tech
Procedure: (§4) ACHN cells were cultured for 2 days in the presence or absence of 100 mM sodium chlorate in RPMI 1640 containing 10% by weight of bovine fetal serum. After the conditioned medium was removed, cells were further cultured for 4 days in a serum-free medium, EX-CELL 610 HSF [manufactured by JRH Bioscience] in the presence or absence of 100 mM sodium chlorate. The conditioned medium was recovered, and spun at 10,000×g at 4° C. for 15 minutes to obtain each of a sodium chlorate-treated conditioned medium and sodium chlorate-untreated conditioned medium.
(§5) Binding between each of the resulting low-sulfated versican and intact versican, and chemokine was examined by sandwich-type enzyme-linked immunosorbent assay. […]
(§6) A conditioned medium of sodium chlorate-treated ACHN cells or a conditioned medium of sodium chlorate-untreated ACHN cells was added to a well of the resulting plate, followed by incubation for 1 hour. […] Binding was determined by measuring absorbance at 620 nm using alkaline phosphatase-conjugated streptavidin and Blue Phos™ substrate. […]

[8] = molecular target: T6, C-terminal truncated secondary lymphoid tissue chemokine (Homo sapiens, UniProt O00585); assay: Sandwich-type ELISA, versican binding to SLC-T; conditions: FIG. 4 panel B
T6 construct: gift: Dr. Melissa Swoop Wills, Vertex Pharmaceutical Co
T6 sequence (O00585 24-102 limits assumed): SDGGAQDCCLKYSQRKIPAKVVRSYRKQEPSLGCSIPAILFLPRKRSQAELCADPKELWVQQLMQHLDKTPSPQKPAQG
Procedure: as §4, §5, §6

[9] = system: anti-versican monoclonal antibody 2B1; assay: Sandwich-type ELISA, versican binding to antibody 2B1; conditions: FIG. 4 panel B
Procedure: as §4, §5, §6

[10] = system: secondary lymphoid tissue chemokine; assay: Sandwich-type ELISA, versican binding to SLC; conditions: FIG. 4 panel B
Procedure: as §4, §5, §6

platelet factor 4 [11] = molecular target: T4, platelet factor 4; assay: Sandwich-type ELISA, versican binding to PF4; conditions: FIG. 4 panel B
Procedure: as §4, §5, §6

[12] = molecular target: T1, γ-interferon inducible protein-10; assay: Sandwich-type ELISA, versican binding to IP-10; conditions: FIG. 4 panel B
Procedure: as §4, §5, §6

[13] = molecular target: T2, stromal cell-derived factor-1β; assay: Sandwich-type ELISA, versican binding to SDF-1β; conditions: FIG. 4 panel B
Procedure: as §4, §5, §6

L-selectin-Ig [14] = molecular target: T3, L-selectin-Ig; assay: Sandwich-type ELISA, versican binding to L-selectin-Ig; conditions: FIG. 4 panel B
Procedure: as §4, §5, §6

P-selectin-Ig [15] = assay: Sandwich-type ELISA, versican binding to P-selectin-Ig; conditions: FIG. 4 panel B
Procedure: as §4, §5, §6

CD44-Ig [16] = assay: Sandwich-type ELISA, versican binding to CD44-Ig; set-up: species or system human; conditions: FIG. 4 panel B
Chain of CD44-Ig (P16070 21-178 limits assumed): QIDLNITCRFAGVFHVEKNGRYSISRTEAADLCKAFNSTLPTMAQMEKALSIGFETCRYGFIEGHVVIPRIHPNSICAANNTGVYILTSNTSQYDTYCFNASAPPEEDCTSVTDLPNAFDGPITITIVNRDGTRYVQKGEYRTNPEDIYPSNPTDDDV
Procedure: as §4, §5, §6

L-selectin-Ig [17] = molecular target: T3, L-selectin-Ig; assay: Binding inhibition assay (ELISA), biotinylated versican to L-selectin-Ig, various concentrations; conditions: dose-dependent, FIG. 2 panel A
Procedure: (§7) Inhibition assay of binding between versican and each of L-selectin, P-selectin and CD44 was performed as follows. First, each well on a 96 well flat bottom microtiter plate (Coster EIA/RIA plate No. 3690) was coated with L-selectin-Ig (3 μg/ml), P-selectin-Ig (4 μg/ml) or CD44-Ig (0.25 μg/ml) by a conventional procedure. […] The plate was incubated at room temperature for 2 hours. Thereafter, the plate was washed with the buffer A, and enzyme-linked immunosorbent assay was performed in the same manner as described in Kawashima, H. et al. [J. Biol. Chem., 275, 35448-35456 (2000)]. Binding was determined by measuring absorbance at 620 nm using alkaline phosphatase-conjugated streptavidin and Blue Phos™ substrate.

CD44-Ig [18] = assay: Binding inhibition assay (ELISA), biotinylated versican to CD44-Ig, various concentrations; set-up: species or system human; conditions: FIG. 2 panel C
Procedure: as §7

P-selectin-Ig [19] = assay: Binding inhibition assay (ELISA), biotinylated versican to P-selectin-Ig, various concentrations; conditions: dose-dependent, FIG. 2 panel B
Procedure: as §7

E-selectin-Ig = assay: Immunoprecipitation of versican from ACHN conditioned medium with E-selectin-Ig; type: binding; conditions: FIG. 1 lanes 13 and 14
Procedure: ACHN cells were pre-incubated at 37° C. for 6 hours in RPMI 1640 containing 10% by weight of bovine fetal serum in the presence or absence of 30 mM sodium chlorate. A confluent monolayer of the resulting ACHN cells was labeled by incubation for 18 hours in the presence or absence of 30 mM sodium chlorate, in a medium of either of:
Immunoprecipitation was performed as follows, according to the method described in the publication of Kawashima, H. et al. [Int. Immunol., 11, 393-405 (1999); all teachings of which are hereby incorporated by reference] except that beads were washed using buffer A (0.05% Tween 20, 20 mM HEPES-NaOH, 0.15M NaCl, 1 mM CaCl2, 1 mM MgCl2, pH6.8).
Each of the antibody and the Ig chimera shown in FIG. 1 (equivalent to 10 μg) was coupled to Protein A-Sepharose column (equivalent to 10 μL) by a conventional method, to obtain antibody-coupled Protein A-Sepharose or Ig chimera-coupled Protein A-Sepharose. […]
Thereafter, the beads were washed with the buffer A, to obtain precipitates. The resulting precipitates were subjected to SDS-agarose-PAGE, and thereafter, signal ascribed to ^35S label on a gel was detected by autoradiography.

monomeric L-selectin = conditions: immobilized ligand; cited from earlier work

- binding of biotinylated oligosaccharide fraction to γ-interferon inducible protein-10 [1]: bound
- binding of biotinylated oligosaccharide fraction to stromal cell-derived factor-1β [2]: bound
- binding of biotinylated oligosaccharide fraction to P-selectin-Ig (P-selectin-Ig [3]): bound
- binding of biotinylated oligosaccharide fraction to L-selectin-Ig (L-selectin-Ig [4]): bound
- binding of biotinylated oligosaccharide fraction to secondary lymphoid tissue chemokine [5]: bound
Molecule: GlcAβ1-3GalNAc(4,6-O-disulfate)β1-4GlcAβ1-3GalNAc(4,6-O-disulfate) [fraction e-2]

- binding of biotinylated oligosaccharide fraction to γ-interferon inducible protein-10 [1]: did not bind
- binding of biotinylated oligosaccharide fraction to stromal cell-derived factor-1β [2]: did not bind
- binding of biotinylated oligosaccharide fraction to platelet factor 4 (platelet factor 4 [6]): moderately bound
- binding of biotinylated oligosaccharide fraction to P-selectin-Ig (P-selectin-Ig [3]): did not bind
- binding of biotinylated oligosaccharide fraction to L-selectin-Ig (L-selectin-Ig [4]): did not bind
- binding of biotinylated oligosaccharide fraction to secondary lymphoid tissue chemokine [5]: did not bind
Molecule: GlcAβ1-3GalNAc(4,6-O-disulfate)β1-4GlcAβ1-3GalNAc(4-O-sulfate) [fraction e-1]

Molecule: intact versican: versican from conditioned medium of sodium chlorate-untreated ACHN cells
- binding to stromal cell-derived factor-1α [7]: did not bind
- binding to recombinant truncated-type secondary lymphoid tissue chemokine [8]: scarcely bound
- binding to anti-versican monoclonal antibody 2B1 [9]: bound
- binding to secondary lymphoid tissue chemokine [10]: remarkably bound
- binding to platelet factor 4 (platelet factor 4 [11]): remarkably bound
- binding to γ-interferon inducible protein-10 [12]: remarkably bound
- binding to stromal cell-derived factor-1β [13]: remarkably bound
- binding to L-selectin-Ig (L-selectin-Ig [14]): bound
- binding to P-selectin-Ig (P-selectin-Ig [15]): bound
- binding to CD44-Ig (CD44-Ig [16]): bound

- inhibition of binding between biotinylated versican and L-selectin-Ig (L-selectin-Ig [17]): not inhibited
- inhibition of binding between biotinylated versican and CD44-Ig (CD44-Ig [18]): not inhibited
- inhibition of binding between biotinylated versican and P-selectin-Ig (P-selectin-Ig [19]): not inhibited
Molecule: keratan sulfate

Molecule: low-sulfated versican: versican from conditioned medium of ACHN cells treated with 100 mM sodium chlorate, mainly unsulfated CS/DS chain
- binding to stromal cell-derived factor-1α [7]: did not bind
- binding to recombinant truncated-type secondary lymphoid tissue chemokine [8]: scarcely bound
- binding to anti-versican monoclonal antibody 2B1 [9]: bound
- binding to CD44-Ig (CD44-Ig [16]): bound

Molecule: unsulfated versican: versican from ACHN cells treated with 30 mM sodium chlorate
- interaction with E-selectin-Ig (E-selectin-Ig): did not interact

B1: GlyCAM-1: known ligand of L-selectin (protein, UniProt Q02596 20-151, looked up)
Glycosylation-dependent cell …: LPGSKDELQMKTQPTDAIPAAQSTPTSYTSEESTSSKDLSKEPSIFREELISKDNVVIESTKPENQEAQDGLRSGSSQLEETTRPTTSAATTSEENLTKSSQTVEEELGKIIEGFVTGAEDIISGASRITKS
- Kd (monomeric L-selectin): 108 µM
- association rate (monomeric L-selectin): ≥ 10^5 M^−1s^−1
